“And” between values parts separate entries of the source, which are not always exact repeats. Equal values may be shown once.

The Kd is the equilibrium constant for the complex coming apart. A higher Kd goes with a looser complex.

For experiment [1], the system named is IL-6 mRNA, human coronary microvascular endothelial cells. Type of experiment: cell-based.
For experiment [2], the system named is IL-1β mRNA, human coronary microvascular endothelial cells. The experiment is classed as cell-based.
In experiment [3] the test system is SRBD internalisation in ACE2 expressing A549 cells. The experiment is classed as cell-based, human.
For experiment [4], the target named is T1, purified human ACE2-Fc (Homo sapiens, UniProt Q9BYF1).
T1 construct: purified recombinant human ACE2-Fc (Q18 –S740, peptidase domain) protein; purchased GenScript
T1 sequence (Q9BYF1 18-740): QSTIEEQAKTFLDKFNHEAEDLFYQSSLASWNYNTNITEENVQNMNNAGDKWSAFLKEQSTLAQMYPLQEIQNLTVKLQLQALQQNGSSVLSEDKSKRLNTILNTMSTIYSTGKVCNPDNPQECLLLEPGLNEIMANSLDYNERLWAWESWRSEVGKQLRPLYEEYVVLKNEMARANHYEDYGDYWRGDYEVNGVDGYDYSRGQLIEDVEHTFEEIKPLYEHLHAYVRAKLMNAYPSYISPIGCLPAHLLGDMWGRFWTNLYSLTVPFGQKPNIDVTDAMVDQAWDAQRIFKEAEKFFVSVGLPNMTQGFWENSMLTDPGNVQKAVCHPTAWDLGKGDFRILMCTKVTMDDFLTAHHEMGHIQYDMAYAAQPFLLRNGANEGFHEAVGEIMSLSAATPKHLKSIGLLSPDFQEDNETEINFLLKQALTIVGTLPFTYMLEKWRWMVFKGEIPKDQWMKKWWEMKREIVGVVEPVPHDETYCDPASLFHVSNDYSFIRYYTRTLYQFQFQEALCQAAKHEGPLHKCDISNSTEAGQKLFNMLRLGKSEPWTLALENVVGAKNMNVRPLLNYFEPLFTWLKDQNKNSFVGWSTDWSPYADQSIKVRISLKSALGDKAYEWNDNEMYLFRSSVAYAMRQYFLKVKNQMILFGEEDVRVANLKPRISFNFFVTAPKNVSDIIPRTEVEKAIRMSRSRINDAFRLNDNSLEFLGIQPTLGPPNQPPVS
The experiment in a line: biochemical. The experiment is classed as binding.

Experiment [5] has as its system SARS CoV-2 S-protein (Wuhan-Hu-1 strain, spike trimer) expressing PsV, HEK293T cells stably expressing human ACE2. Type of experiment: cell-based, SARS-CoV-2 (Wuhan-Hu-1 strain).
Experiment [6] concerns VCAM mRNA, human coronary microvascular endothelial cells. Type of experiment: cell-based.
The subject of experiment [7] is MCP-1 mRNA, human coronary microvascular endothelial cells. The experiment is classed as cell-based.

On to `CC(=O)N[C@@H](CO)C(=O)N[C@@H](CCCCN)C(=O)N[C@H](C(=O)NCC(=O)NCC(=O)N[C@@H](CC(N)=O)C(=O)N[C@@H](Cc1ccc(O)cc1)C(=O)N[C@@H](CC(N)=O)C(=O)N[C@@H](Cc1ccc(O)cc1)C(=O)N[C@@H](CC(C)C)C(=O)N[C@@H](Cc1ccc(O)cc1)C(=O)N[C@@H](CCCNC(=N)N)C(=O)N[C@@H](CC(C)C)C(=O)N[C@@H](Cc1ccccc1)C(=O)N[C@@H](CCCNC(=N)N)C(=O)N[C@@H](CCCCN)C(N)=O)C(C)C` [RBM1], for which, in experiment [1], the “IL-6, MEAN” value is 0.7896 and 1.445; the “IL-6 mRNA expression, peptide alone” value is listed as “did not mimic S1 protein-induced inflammation”; the “S1 induced IL-6 mRNA expression, peptide pre-treated” value is “did not attenuate the S1 induced inflammatory response”. In addition, in experiment [2], the “IL-1β mRNA expression, peptide alone” value is “did not mimic S1 protein-induced inflammation” and the “S1 induced IL-1β mRNA expression, peptide pre-treated” value is given as “did not attenuate the S1 induced inflammatory response”. In addition, in experiment [3], the “inhibition of SRBD internalisation (in words)” value is reported as “marked, yet non-significant reduction”. Moreover, binding in experiment [4] was put at a Kd of 207 nM. In addition, the “inhibition of spike PsV cell entry (in words)” value in experiment [5] (N = 3) is reported as “did not inhibit PsV cell entry”. In experiment [6], the “S1 induced VCAM mRNA expression, peptide pre-treated” value is recorded as “did not attenuate the S1 induced inflammatory response” and the “VCAM mRNA expression, peptide alone” value is “did not mimic S1 protein-induced inflammation”. Also, in experiment [7], the “MCP-1 mRNA expression, peptide alone” value is “did not mimic S1 protein-induced inflammation” and the “S1 induced MCP-1 mRNA expression, peptide pre-treated” value was “did not attenuate the S1 induced inflammatory response”.
As to soluble ACE2 protein, the “inhibition of spike PsV cell entry by soluble ACE2 (in words)” value in experiment [5] is “completely blocked spike PsV cell entry”.
“Ac-NYGLQGSPFGYQETPYPFCNFVQYG-NH2 [RBM2A-Sc]”: the “IL-6, MEAN” value in experiment [1] was 0.966 and 1.58. In experiment [3], the “inhibition of SRBD internalisation (in words)” value is given as “did not significantly inhibit SRBD-mediated internalisation”. Further, in experiment [4], the “binding to ACE2 (in words)” value was “appeared to bind to ACE2 in a dose-dependent manner (Fig 4C) saturation of ACE2 binding was not achieved”.

Values taken from publication PMC8601423 (PLoS ONE, 2021).
